Results from patent US20250177502A1, “THROMBIN AND FIBRINOGEN AS TARGETS FOR ATOPIC DERMATITIS DIAGNOSIS AND TREATMENT” (Children's Hospital Medical Center, priority 2022, published 2025).

Columns and labels:
[1] = Absorption of topically applied bivalirudin: prothrombin time on homogenized ex vivo mouse skin samples; assay type: in vitro ADME; conditions: reconstituted bivalirudin 50 mg/mL applied to ex vivo mouse skin for 0, 5 or 15 minutes, then washed
Protocol: Reconstituted bivalirudin was applied to ex vivo mouse skin samples for 0, 5, or 15 minutes then repeatedly washed, the samples were homogenized, and finally a prothrombin time was run on the homogenized skin samples. […] FIG. 10 illustrates absorption of topically applied bivalirudin by measuring prothrombin time.

[2] = Bivalirudin solubility and precipitation in aqueous solutions; assay type: physicochemical
Protocol: Direct thrombin inhibitor bivalirudin was formulated in a lyophilized formulation containing 50 mg/mL of bivalirudin, 25 mg/mL of mannitol, and NaOH for pH adjustment to 5-6. […] The lyophilized bivalirudin was reconstituted with 5 mL water to a concentration of 50 mg/mL.

## CC[C@H](C)[C@H](NC(=O)[C@H](CCC(=O)O)NC(=O)[C@H](CCC(=O)O)NC(=O)[C@H](Cc1ccccc1)NC(=O)[C@H](CC(=O)O)NC(=O)CNC(=O)[C@H](CC(N)=O)NC(=O)CNC(=O)CNC(=O)CNC(=O)CNC(=O)[C@@H]1CCCN1C(=O)[C@H](CCCNC(=N)N)NC(=O)[C@@H]1CCCN1C(=O)[C@H](N)Cc1ccccc1)C(=O)N1CCC[C@H]1C(=O)N[C@@H](CCC(=O)O)C(=O)N[C@@H](CCC(=O)O)C(=O)N[C@@H](Cc1ccc(O)cc1)C(=O)N[C@@H](CC(C)C)C(=O)O [bivalirudin]
[1]
  absorption by skin and retained function (prothrombin time of homogenized skin): is absorbed and retains function
[2]
  solubility: influence of pH: influenced by pH
  solubility: influence of temperature and addition of mannitol: not affected
